From patent publication US20230278984A1 (Global Blood Therapeutics, Inc., priority 2020, published 2023)

Biological target: T1, Human pyruvate kinase R (PKR) (Homo sapiens, UniProt P30613)
T1 construct: Human pyruvate kinase R (PKR), residues 14-574; 6x-His (N, cleaved yes); 8x-Arg (N, cleaved yes); SUMO (N, cleaved yes); host or cells: E. coli
Experiment: Biochemical assay for activation of pyruvate kinase R (Kinase-Glo luminescence measurement of ATP generation)
Conditions: for AC50: PKR biochemical assay, 0.1 nM PKR, 0.3 mM ADP, 2 mM FBP, 0.1 mM PEP; for Emax: maximal activation level relative to the activation level achieved by the literature compound AG-348 @ 10 μM
Summary of the method: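 Recombinant human PKR (residues 14-574), E. coli-expressed with His-Arg-SUMO tag removed, purified by Ni-NTA, anion exchange and size exclusion. Activation measured as ATP generation via Kinase-Glo luminescence.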

T1 sequence (P30613 14-574): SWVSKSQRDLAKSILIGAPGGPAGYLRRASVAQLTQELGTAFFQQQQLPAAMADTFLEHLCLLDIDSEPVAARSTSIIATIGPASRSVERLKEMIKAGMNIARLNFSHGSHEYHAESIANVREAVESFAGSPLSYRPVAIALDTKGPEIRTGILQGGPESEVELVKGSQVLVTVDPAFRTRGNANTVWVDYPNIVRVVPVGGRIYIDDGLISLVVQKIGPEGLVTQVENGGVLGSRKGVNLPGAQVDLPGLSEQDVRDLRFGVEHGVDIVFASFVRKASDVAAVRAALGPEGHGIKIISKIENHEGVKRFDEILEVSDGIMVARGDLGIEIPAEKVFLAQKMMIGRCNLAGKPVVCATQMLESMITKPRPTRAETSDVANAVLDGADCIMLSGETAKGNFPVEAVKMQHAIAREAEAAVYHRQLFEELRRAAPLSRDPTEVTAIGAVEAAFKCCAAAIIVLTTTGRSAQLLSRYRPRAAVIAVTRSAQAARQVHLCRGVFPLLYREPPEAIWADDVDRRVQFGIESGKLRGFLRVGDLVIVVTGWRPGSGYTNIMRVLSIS

Compound | AC50 | Emax
CCc1nc(CNC(=O)NCc2ncnn2-c2ccc3nccnc3c2)n(-c2ccc(Cl)c(F)c2)n1 [Compound 49, 1-{[1-(4-chloro-3-fluorophenyl)-3-ethyl-1H-1,2,4-triazol-5-yl]methyl}-3-{[1-(quinoxalin-6-yl)-1H-1,2,4-triazol-5-yl]methyl}urea] | 150 nM | 79%
CCN(Cc1ncnn1-c1ccc(Cl)c(F)c1)C(=O)NCc1ncnn1CC1CCOCC1 [Compound 8, 3-{[1-(4-chloro-3-fluorophenyl)-1H-1,2,4-triazol-5-yl]methyl}-3-ethyl-1-({1-[(oxan-4-yl)methyl]-1H-1,2,4-triazol-5-yl}methyl)urea] | 320 nM | 59%
O=C(NCc1ncnn1-c1ccc(Cl)cc1)NCc1ncnn1-c1ccc(Cl)cc1 [Compound 61, 1,3-bis({[1-(4-chlorophenyl)-1H-1,2,4-triazol-5-yl]methyl})urea] | 11 nM | 36%
O=C(NCc1ncnn1-c1ccc(Cl)c(F)c1)NCc1nc(C2CC2)nn1-c1ccc2cccnc2c1 [Compound 91, 1-{[1-(4-chloro-3-fluorophenyl)-1H-1,2,4-triazol-5-yl]methyl}-3-{[3-cyclopropyl-1-(quinolin-7-yl)-1H-1,2,4-triazol-5-yl]methyl}urea] | 49 nM | 61%
O=C(NCc1nnnn1-c1cccc(Cl)c1)NCc1nnnn1-c1cccc(Cl)c1 [Compound 2, 1,3-bis({[1-(3-chlorophenyl)-1H-1,2,3,4-tetrazol-5-yl]methyl})urea] | 530 nM | 69%
CCN(Cc1ncnn1-c1ccc(OC)nc1)C(=O)NCc1ncnn1-c1ccc(Cl)c(F)c1 [Compound 122, 3-{[1-(4-chloro-3-fluorophenyl)-1H-1,2,4-triazol-5-yl]methyl}-1-ethyl-1-{[1-(6-methoxypyridin-3-yl)-1H-1,2,4-triazol-5-yl]methyl}urea] | 190 nM | 42%
O=C(NCc1nnnn1-c1ccc(Cl)cc1F)NCc1nnnn1-c1ccc(Cl)cc1F [Compound 25, 1,3-bis({[1-(4-chloro-2-fluorophenyl)-1H-1,2,3,4-tetrazol-5-yl]methyl})urea] | 2500 nM | 80%
Cc1ccc(-n2ncnc2CN(C)C(=O)NCc2nc(C)nn2-c2ccc(Cl)c(F)c2)cn1 [Compound 79, 3-{[1-(4-chloro-3-fluorophenyl)-3-methyl-1H-1,2,4-triazol-5-yl]methyl}-1-methyl-1-{[1-(6-methylpyridin-3-yl)-1H-1,2,4-triazol-5-yl]methyl}urea] | 160 nM | 53%
Cc1nc(CNC(=O)NCc2ncnn2-c2cc(C)c3cccnc3c2)n(-c2ccc(Cl)c(F)c2)n1 [Compound 113, 1-{[1-(4-chloro-3-fluorophenyl)-3-methyl-1H-1,2,4-triazol-5-yl]methyl}-3-{[1-(5-methylquinolin-7-yl)-1H-1,2,4-triazol-5-yl]methyl}urea] | 40 nM | 116%
CN(Cc1ncnn1-c1ccc(Cl)c(F)c1)C(=O)NCc1ncnn1-c1ccc(Cl)c(F)c1 [Compound 27, 1,3-bis({[1-(4-chloro-3-fluorophenyl)-1H-1,2,4-triazol-5-yl]methyl})-1-methylurea] | 5.4 nM | 33%
O=C(NCc1ncnn1-c1ccc(Cl)c(F)c1)N(CCF)Cc1ncnn1-c1ccc(Cl)c(F)c1 [Compound 38, 1,3-bis({[1-(4-chloro-3-fluorophenyl)-1H-1,2,4-triazol-5-yl]methyl})-1-(2-fluoroethyl)urea] | 55 nM | 53%
Cc1ccc(-n2ncnc2CNC(=O)NCc2ncnn2-c2ccc(C)c(C)c2)cc1C [Compound 57, 1,3-bis({[1-(3,4-dimethylphenyl)-1H-1,2,4-triazol-5-yl]methyl})urea] | 64 nM | 87%
Cc1nc(CNC(=O)NCc2nnnn2-c2ccc(Cl)c(F)c2)n(-c2ccc3cccnc3c2)n1 [Compound 86, 1-{[1-(4-chloro-3-fluorophenyl)-1H-1,2,3,4-tetrazol-5-yl]methyl}-3-{[3-methyl-1-(quinolin-7-yl)-1H-1,2,4-triazol-5-yl]methyl}urea] | 66 nM | 90%
O=C(NCc1ncnn1-c1ccc2ncccc2c1)NCc1ncnn1-c1ccc2ncccc2c1 [Compound 71, 1,3-bis({[1-(quinolin-6-yl)-1H-1,2,4-triazol-5-yl]methyl})urea] | 930 nM | 48%
COc1ccc(-n2ncnc2CNC(=O)NCc2ncnn2-c2ccc(Cl)c(F)c2)cn1 [Compound 118, 3-{[1-(4-chloro-3-fluorophenyl)-1H-1,2,4-triazol-5-yl]methyl}-1-{[1-(6-methoxypyridin-3-yl)-1H-1,2,4-triazol-5-yl]methyl}urea] | 47 nM | 36%
Cc1nc(CNC(=O)NCc2ncnn2CC2CCOCC2)n(-c2ccc(Cl)c(F)c2)n1 [Compound 10, 3-{[1-(4-chloro-3-fluorophenyl)-3-methyl-1H-1,2,4-triazol-5-yl]methyl}-1-({1-[(oxan-4-yl)methyl]-1H-1,2,4-triazol-5-yl}methyl)urea] | 80 nM | 74%
Cc1nc(CNC(=O)NCC2=NC3(CCC3)C(=O)N2c2ccc3cccnc3c2)n(-c2ccc(Cl)c(F)c2)n1 [Compound 112, 1-{[1-(4-chloro-3-fluorophenyl)-3-methyl-1H-1,2,4-triazol-5-yl]methyl}-3-{[8-oxo-7-(quinolin-7-yl)-5,7-diazaspiro[3.4]oct-5-en-6-yl]methyl}urea] | 802 nM | 126%
COc1ccc(-n2nnnc2CNC(=O)NCc2nnnn2-c2ccc(OC)cc2)cc1 [Compound 69, 1,3-bis({[1-(4-methoxyphenyl)-1H-1,2,3,4-tetrazol-5-yl]methyl})urea] | 540 nM | 92%

Other lines, results leading:

AC50 | Emax | Compound
51 nM | 93% | Cc1nc(CNC(=O)NCc2nc(C)nn2-c2ccc(Cl)c(F)c2)n(-c2ccc(Cl)c(F)c2)n1 [Compound 77, 1,3-bis({[1-(4-chloro-3-fluorophenyl)-3-methyl-1H-1,2,4-triazol-5-yl]methyl})urea]
510 nM | 106% | COCCc1nc(CNC(=O)NCc2nc(C)nn2-c2ccc3cccnc3c2)n(-c2ccc(Cl)c(F)c2)n1 [Compound 100]
69 nM | 69% | CNCc1cc(-n2nc(C)nc2CNC(=O)NCc2nc(C)nn2-c2ccc(Cl)c(F)c2)ccc1Cl [Compound 99, 1-[(1-{4-chloro-3-[(methylamino)methyl]phenyl}-3-methyl-1H-1,2,4-triazol-5-yl)methyl]-3-{[1-(4-chloro-3-fluorophenyl)-3-methyl-1H-1,2,4-triazol-5-yl]methyl}urea]
13 nM | 41% | O=C(NCc1ncnn1-c1ccc(Cl)c(F)c1)NCc1ncnn1-c1ccc(Cl)c(F)c1 [Compound 66, 1,3-bis({[1-(4-chloro-3-fluorophenyl)-1H-1,2,4-triazol-5-yl]methyl})urea]
66 nM | 75% | Cc1nc(CNC(=O)NCc2ncnn2-c2ccc3c(cnn3C)c2)n(-c2ccc(Cl)c(F)c2)n1 [Compound 51, 1-{[1-(4-chloro-3-fluorophenyl)-3-methyl-1H-1,2,4-triazol-5-yl]methyl}-3-{[1-(1-methyl-1H-indazol-5-yl)-1H-1,2,4-triazol-5-yl]methyl}urea]
68 nM | 87% | COC(=O)c1cc(-n2nc(C)nc2CNC(=O)NCc2nc(C)nn2-c2ccc(Cl)c(F)c2)ccc1Cl [Compound 95, methyl 2-chloro-5-(5-{[({[1-(4-chloro-3-fluorophenyl)-3-methyl-1H-1,2,4-triazol-5-yl]methyl}carbamoyl)amino]methyl}-3-methyl-1H-1,2,4-triazol-1-yl)benzoate]
61 nM | 96% | Cc1nc(CNC(=O)NCc2ncnn2-c2cnc3ccc(F)cc3c2)n(-c2ccc(Cl)c(F)c2)n1 [Compound 139, 1-{[1-(4-chloro-3-fluorophenyl)-3-methyl-1H-1,2,4-triazol-5-yl]methyl}-3-{[1-(6-fluoroquinolin-3-yl)-1H-1,2,4-triazol-5-yl]methyl}urea]
51 nM | 63% | Cc1nc(CNC(=O)NCc2ncnn2-c2ccc3ccncc3c2)n(-c2ccc(Cl)c(F)c2)n1 [Compound 39, 3-{[1-(4-chloro-3-fluorophenyl)-3-methyl-1H-1,2,4-triazol-5-yl]methyl}-1-{[1-(isoquinolin-7-yl)-1H-1,2,4-triazol-5-yl]methyl}urea]
86 nM | 117% | Cc1nc(CNC(=O)NCc2ncnn2-c2cnc3cc(F)ccc3c2)n(-c2ccc(Cl)c(F)c2)n1 [Compound 135, 1-{[1-(4-chloro-3-fluorophenyl)-3-methyl-1H-1,2,4-triazol-5-yl]methyl}-3-{[1-(7-fluoroquinolin-3-yl)-1H-1,2,4-triazol-5-yl]methyl}urea]
32 nM | 64% | COC(=O)c1cc(-n2ncnc2CNC(=O)NCc2nc(C)nn2-c2ccc(Cl)c(F)c2)ccc1Cl [Compound 50, methyl 2-chloro-5-(5-{[({[1-(4-chloro-3-fluorophenyl)-3-methyl-1H-1,2,4-triazol-5-yl]methyl}carbamoyl)amino]methyl}-1H-1,2,4-triazol-1-yl)benzoate]
30 nM | 107% | O=C(NCc1nc(CF)nn1-c1ccc(Cl)c(F)c1)NCc1n[nH]c(=O)n1-c1ccc(Cl)c(F)c1 [Compound 107, 1-{[1-(4-chloro-3-fluorophenyl)-3-(fluoromethyl)-1H-1,2,4-triazol-5-yl]methyl}-3-{[4-(4-chloro-3-fluorophenyl)-5-oxo-4,5-dihydro-1H-1,2,4-triazol-3-yl]methyl}urea]
730 nM | 87% | Cc1nc(CNC(=O)NCc2nc(CCO)nn2-c2ccc(Cl)c(F)c2)n(-c2ccc3cccnc3c2)n1 [Compound 94, 1-{[1-(4-chloro-3-fluorophenyl)-3-(2-hydroxyethyl)-1H-1,2,4-triazol-5-yl]methyl}-3-{[3-methyl-1-(quinolin-7-yl)-1H-1,2,4-triazol-5-yl]methyl}urea]
